According to patent US20220119354A1, “DIAMINO-SUBSTITUTED PYRIDINES AND PYRIMIDINES AS HERBICIDES” (FMC Corporation, priority 2019, published 2022):

Columns and labels:
Type in all cases: in vivo
[1] = system: sedge, umbrella (small-flower umbrella sedge, Cyperus difformis); test: Test B flooded paddy test, umbrella sedge; details: Flood, 250 g ai/ha, applied to paddy water, 2-leaf stage, visual evaluation after 13 to 15 d
In short: (§1)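 Visual injury scores run from 0 (no effect) to 100 (complete control), assigned by comparison with controls 13 to 15 d after treatment. Treatment went into floodwater standing 3 cm over the soil of pots holding 2-leaf plants.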

[2] = system: pigweed (Amaranthus retroflexus); test: Test A postemergence, pigweed; details: 0 to 100 scale, 0 no effect, 100 complete control
In short: (§2)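 Compound, in a non-phytotoxic solvent blend containing surfactant, is sprayed onto soil immediately after sowing or onto young plants (one- to two-leaf, 2–10 cm). After roughly 10 d under greenhouse conditions, injury is judged by eye relative to untreated plants on a 0–100 control scale.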

[3] = system: galium (catchweed bedstraw, Galium aparine); test: Test A postemergence, galium; details: 0 to 100 scale, 0 no effect, 100 complete control
In short: as §2

[4] = system: ragweed (common ragweed, Ambrosia elatior); test: Test A preemergence, ragweed; details: 0 to 100 scale, 0 is no effect, 100 is complete control
In short: as §2

[5] = system: ragweed (common ragweed, Ambrosia elatior); test: Test A postemergence, ragweed; details: 0 to 100 scale, 0 no effect, 100 complete control
In short: as §2

[6] = system: foxtail, giant (Setaria faberii); test: Test A postemergence, giant foxtail; details: 0 to 100 scale, 0 no effect, 100 complete control
In short: as §2

[7] = system: blackgrass (Alopecurus myosuroides); test: Test A postemergence, blackgrass; details: 0 to 100 scale, 0 no effect, 100 complete control
In short: as §2

kochia (Kochia scoparia) [8] = test: Test A postemergence, kochia; details: 0 to 100 scale, 0 no effect, 100 complete control
In short: as §2

[9] = system: pigweed (Amaranthus retroflexus); test: Test A preemergence, pigweed; details: 0 to 100 scale, 0 is no effect, 100 is complete control
In short: as §2

[10] = system: barnyardgrass (Echinochloa crus-galli); test: Test B flooded paddy test, barnyardgrass; details: Flood, 250 g ai/ha, applied to paddy water, 2-leaf stage, visual evaluation after 13 to 15 d
In short: as §1

[11] = system: barnyardgrass (Echinochloa crus-galli); test: Test A preemergence, barnyardgrass; details: 0 to 100 scale, 0 is no effect, 100 is complete control
In short: as §2

[12] = system: foxtail, giant (Setaria faberii); test: Test A preemergence, giant foxtail; details: 0 to 100 scale, 0 is no effect, 100 is complete control
In short: as §2

[13] = system: ryegrass, Italian (Lolium multiflorum); test: Test A preemergence, Italian ryegrass; details: 0 to 100 scale, 0 is no effect, 100 is complete control
In short: as §2

[14] = system: ryegrass, Italian (Lolium multiflorum); test: Test A postemergence, Italian ryegrass; details: 0 to 100 scale, 0 no effect, 100 complete control
In short: as §2

[15] = system: ducksalad (Heteranthera limosa); test: Test B flooded paddy test, ducksalad; details: Flood, 250 g ai/ha, applied to paddy water, 2-leaf stage, visual evaluation after 13 to 15 d
In short: as §1

[16] = system: barnyardgrass (Echinochloa crus-galli); test: Test A postemergence, barnyardgrass; details: 0 to 100 scale, 0 no effect, 100 complete control
In short: as §2

kochia (Kochia scoparia) [17] = test: Test A preemergence, kochia; details: 0 to 100 scale, 0 is no effect, 100 is complete control
In short: as §2

rice (Oryza sativa) = test: Test B flooded paddy test, rice; details: Flood, 250 g ai/ha, applied to paddy water, 2-leaf stage, visual evaluation after 13 to 15 d
In short: as §1

[18] = system: wheat (Triticum aestivum); test: Test A postemergence, wheat; details: 0 to 100 scale, 0 no effect, 100 complete control
In short: as §2

corn (Zea mays) = test: Test A postemergence, corn; details: 0 to 100 scale, 0 no effect, 100 complete control
In short: as §2

| Compound | Plant response rating, Sedge, Umbrella (0 to 100 scale, 0 is no effect, 100 is complete control) [1] | Plant response rating, Pigweed ([2]; 31 g ai/ha) | Plant response rating, Pigweed ([2]; 125 g ai/ha) | Plant response rating, Galium ([3]; 31 g ai/ha) | Plant response rating, Galium ([3]; 125 g ai/ha) | Ragweed plant response rating ([4]; 31 g ai/ha) | Ragweed plant response rating ([4]; 125 g ai/ha) | Plant response rating, Ragweed ([5]; 31 g ai/ha) | Plant response rating, Ragweed ([5]; 125 g ai/ha) | Plant response rating, Foxtail, Giant ([6]; 31 g ai/ha) | Plant response rating, Foxtail, Giant ([6]; 125 g ai/ha) | Plant response rating, Blackgrass ([7]; 31 g ai/ha) | Plant response rating, Blackgrass ([7]; 125 g ai/ha) | Plant response rating, Kochia (kochia (Kochia scoparia) [8]; 31 g ai/ha) | Plant response rating, Kochia (kochia (Kochia scoparia) [8]; 125 g ai/ha) | Pigweed plant response rating ([9]; 31 g ai/ha) | Pigweed plant response rating ([9]; 125 g ai/ha) | Plant response rating, Barnyardgrass (0 to 100 scale, 0 is no effect, 100 is complete control) [10] | Barnyardgrass plant response rating ([11]; 31 g ai/ha) | Barnyardgrass plant response rating ([11]; 125 g ai/ha) | further results |
| --- | --- | --- | --- | --- | --- | --- | --- | --- | --- | --- | --- | --- | --- | --- | --- | --- | --- | --- | --- | --- | --- |
| CC(F)c1nc(N[C@H](C)c2cc3ccccc3s2)nc(N)c1C(F)(F)F (stereo partly drawn) [Compound 108] | 75 | 70 | 90 | 50 | 70 | 50 | 70 | 30 | 50 | 0 | 20 | 0 | 0 | 40 | 70 | 70 | 90 | 35 | 40 | 30 | Foxtail, Giant plant response rating ([12]; 31 g ai/ha): 30; Foxtail, Giant plant response rating ([12]; 125 g ai/ha): 30; Ryegrass, Italian plant response rating ([13]; 31 g ai/ha): 0; Ryegrass, Italian plant response rating ([13]; 125 g ai/ha): 30; Plant response rating, Ryegrass, Italian ([14]; 31 g ai/ha): 0; Plant response rating, Ryegrass, Italian ([14]; 125 g ai/ha): 50; Plant response rating, Ducksalad (0 to 100 scale, 0 is no effect, 100 is complete control) [15]: 30; Plant response rating, Barnyardgrass ([16]; 31 g ai/ha): 20; Plant response rating, Barnyardgrass ([16]; 125 g ai/ha): 0; Kochia plant response rating (kochia (Kochia scoparia) [17]; 31 g ai/ha): 90; Kochia plant response rating (kochia (Kochia scoparia) [17]; 125 g ai/ha): 90; Plant response rating, Rice (0 to 100 scale, 0 is no effect, 100 is complete control) (rice (Oryza sativa)): 0; Plant response rating, Wheat ([18]; 31 g ai/ha): 0; Plant response rating, Wheat ([18]; 125 g ai/ha): 0; Plant response rating, Corn (corn (Zea mays); 31 g ai/ha): 0; Plant response rating, Corn (corn (Zea mays); 125 g ai/ha): 10 |
| C[C@@H](Nc1nc(N)c(C(F)(F)F)c(C(F)F)n1)c1cc2ccccc2s1 [Compound 109] | 75 | 80 | 90 | 40 | 70 | 30 | 90 | 50 | 60 | 0 | 20 | 10 | 10 | 50 | 70 | 70 | 90 | 35 | 0 | 0 | Foxtail, Giant plant response rating ([12]; 31 g ai/ha): 0; Foxtail, Giant plant response rating ([12]; 125 g ai/ha): 30; Ryegrass, Italian plant response rating ([13]; 31 g ai/ha): 20; Ryegrass, Italian plant response rating ([13]; 125 g ai/ha): 40; Plant response rating, Ryegrass, Italian ([14]; 31 g ai/ha): 0; Plant response rating, Ryegrass, Italian ([14]; 125 g ai/ha): 0; Plant response rating, Ducksalad (0 to 100 scale, 0 is no effect, 100 is complete control) [15]: 65; Plant response rating, Barnyardgrass ([16]; 31 g ai/ha): 0; Plant response rating, Barnyardgrass ([16]; 125 g ai/ha): 0; Kochia plant response rating (kochia (Kochia scoparia) [17]; 31 g ai/ha): 80; Kochia plant response rating (kochia (Kochia scoparia) [17]; 125 g ai/ha): 90; Plant response rating, Rice (0 to 100 scale, 0 is no effect, 100 is complete control) (rice (Oryza sativa)): 20; Plant response rating, Wheat ([18]; 31 g ai/ha): 0; Plant response rating, Wheat ([18]; 125 g ai/ha): 0; Plant response rating, Corn (corn (Zea mays); 31 g ai/ha): 0; Plant response rating, Corn (corn (Zea mays); 125 g ai/ha): 0 |
| C[C@@H](Nc1ncc([S+](C)[O-])c(N)n1)c1cc2ccccc2s1 (stereo partly drawn) [Compound 110] | 90 | 60 | 80 | 30 | 70 | 40 | 80 | 0 | 30 | 0 | 0 | 0 | 0 | 0 | 10 | 0 | 30 | 20 | 0 | 0 | Foxtail, Giant plant response rating ([12]; 31 g ai/ha): 0; Foxtail, Giant plant response rating ([12]; 125 g ai/ha): 0; Ryegrass, Italian plant response rating ([13]; 31 g ai/ha): 0; Ryegrass, Italian plant response rating ([13]; 125 g ai/ha): 0; Plant response rating, Ryegrass, Italian ([14]; 31 g ai/ha): 0; Plant response rating, Ryegrass, Italian ([14]; 125 g ai/ha): 0; Plant response rating, Ducksalad (0 to 100 scale, 0 is no effect, 100 is complete control) [15]: 60; Plant response rating, Barnyardgrass ([16]; 31 g ai/ha): 0; Plant response rating, Barnyardgrass ([16]; 125 g ai/ha): 10; Kochia plant response rating (kochia (Kochia scoparia) [17]; 31 g ai/ha): 0; Kochia plant response rating (kochia (Kochia scoparia) [17]; 125 g ai/ha): 0; Plant response rating, Rice (0 to 100 scale, 0 is no effect, 100 is complete control) (rice (Oryza sativa)): 15; Plant response rating, Wheat ([18]; 31 g ai/ha): 0; Plant response rating, Wheat ([18]; 125 g ai/ha): 0; Plant response rating, Corn (corn (Zea mays); 31 g ai/ha): 0; Plant response rating, Corn (corn (Zea mays); 125 g ai/ha): 10 |
| C[C@@H](Nc1nc(N)c(C(F)(F)F)c(C(F)F)n1)c1cc2ccccc2o1 [Compound 111] | 0 | 50 | 80 | 20 | 50 | 30 | 90 | 40 | 50 | 0 | 0 | 0 | 0 | 0 | 60 | 10 | 70 | 0 | 0 | 0 | Foxtail, Giant plant response rating ([12]; 31 g ai/ha): 0; Foxtail, Giant plant response rating ([12]; 125 g ai/ha): 10; Ryegrass, Italian plant response rating ([13]; 31 g ai/ha): 0; Ryegrass, Italian plant response rating ([13]; 125 g ai/ha): 0; Plant response rating, Ryegrass, Italian ([14]; 31 g ai/ha): 0; Plant response rating, Ryegrass, Italian ([14]; 125 g ai/ha): 0; Plant response rating, Ducksalad (0 to 100 scale, 0 is no effect, 100 is complete control) [15]: 0; Plant response rating, Barnyardgrass ([16]; 31 g ai/ha): 10; Plant response rating, Barnyardgrass ([16]; 125 g ai/ha): 0; Kochia plant response rating (kochia (Kochia scoparia) [17]; 31 g ai/ha): 40; Kochia plant response rating (kochia (Kochia scoparia) [17]; 125 g ai/ha): 70; Plant response rating, Rice (0 to 100 scale, 0 is no effect, 100 is complete control) (rice (Oryza sativa)): 0; Plant response rating, Wheat ([18]; 31 g ai/ha): 0; Plant response rating, Wheat ([18]; 125 g ai/ha): 0; Plant response rating, Corn (corn (Zea mays); 31 g ai/ha): 0; Plant response rating, Corn (corn (Zea mays); 125 g ai/ha): 20 |
| CC(F)c1nc(N[C@H](C)c2cc3ccccc3o2)nc(N)c1C(F)(F)F (stereo partly drawn) [Compound 112] | 0 | 30 | 60 | 20 | 60 | 0 | 30 | 0 | 0 | 0 | 0 | 0 | 0 | 10 | 60 | 0 | 80 | 0 | 0 | 0 | Foxtail, Giant plant response rating ([12]; 31 g ai/ha): 0; Foxtail, Giant plant response rating ([12]; 125 g ai/ha): 0; Ryegrass, Italian plant response rating ([13]; 31 g ai/ha): 0; Ryegrass, Italian plant response rating ([13]; 125 g ai/ha): 0; Plant response rating, Ryegrass, Italian ([14]; 31 g ai/ha): 0; Plant response rating, Ryegrass, Italian ([14]; 125 g ai/ha): 0; Plant response rating, Ducksalad (0 to 100 scale, 0 is no effect, 100 is complete control) [15]: 0; Plant response rating, Barnyardgrass ([16]; 31 g ai/ha): 0; Plant response rating, Barnyardgrass ([16]; 125 g ai/ha): 0; Kochia plant response rating (kochia (Kochia scoparia) [17]; 31 g ai/ha): 0; Kochia plant response rating (kochia (Kochia scoparia) [17]; 125 g ai/ha): 70; Plant response rating, Rice (0 to 100 scale, 0 is no effect, 100 is complete control) (rice (Oryza sativa)): 0; Plant response rating, Wheat ([18]; 31 g ai/ha): 0; Plant response rating, Wheat ([18]; 125 g ai/ha): 0; Plant response rating, Corn (corn (Zea mays); 31 g ai/ha): 30; Plant response rating, Corn (corn (Zea mays); 125 g ai/ha): 0 |
